Results: patent US9670173B2, “Dicarboxylic acid compound” (DAIICHI SANKYO COMPANY, LIMITED, priority 2013, dated 2017)

These molecules were tested on male SD rats (assay: Rat 33P phosphate oral challenge test (intestinal phosphate absorption suppression test)). Details: fasted, 30 mg/kg forcible oral administration, 33P phosphate solution given 30 min later, serum radioactivity AUC0-60min versus control group.
Type: in vivo
Description: (Test Example) Rat ^33P Phosphate Oral Challenge Test (Intestinal Phosphate Absorption Suppression Test)
Using male SD rats (5-7 week old) that had been fasted on the previous day, the compound described in Examples was suspended or dissolved in a solvent such as 0.5% methyl cellulose (3-6 mg/mL), and the thus obtained solution was administered to each rat at a dose of 30 mg/kg by a forcible oral administration. On the other hand, regarding a control group, the solvent was administered to each rat at a dose of 5 mL/kg. Thirty minutes after the administration, a ^33P phosphate solution (8.3 mM NaH2PO4, 0.35 MBq/mL) was administered to the rats at a dose of 7.2 mL/kg by a forcible oral administration. Then, 15, 30, 60, and 120 minutes after the administration, blood was collected from the jugular vein of each rat under anesthesia with isoflurane. The radioactivity in 50 μL of serum was measured using a liquid scintillation counter, and the AUC0-60min was then calculated from the radioactivity value. The obtained value was defined as an amount of phosphate absorbed. The phosphate absorption-inhibiting activity of the compound was calculated according to the following expression. Phosphate absorption-inhibiting activity (%)=[[…]the amount of phosphate absorbed of the control group]×100

| SMILES | Phosphorus absorption-inhibiting activity (%) |
| --- | --- |
| CCN([C@H]1CC[C@@H](C(=O)O)CC1)S(=O)(=O)c1cccc(C(=O)Nc2ccc(N3CCCCC3)cc2C(=O)Nc2ccc(CCc3ccc(C(=O)O)cc3)cc2)c1 [Example 26, Dipotassium 4-[2-(4-{[2-({3-[(cis-4-carboxylatocyclohexyl)(ethyl)sulfamoyl]benzoyl}amino)-5-(piperidin-1-yl)benzoyl]amino}phenyl)ethyl]benzoate] | 60% |
| CCN([C@H]1CC[C@H](C(=O)[O-])CC1)S(=O)(=O)c1cccc(C(=O)Nc2ccc(N3CCCC3)cc2C(=O)Nc2ccc(CCc3ccc(C(=O)[O-])cc3)cc2)c1.[K+].[K+] [Example 10, Dipotassium 4-[2-(4-{[2-({3-[(trans-4-carboxylatocyclohexyl)(ethyl)sulfamoyl]benzoyl}amino)-5-(pyrrolidin-1-yl)benzoyl]amino}phenyl)ethyl]benzoate] | 53% |
| CCN([C@H]1CC[C@H](C(=O)O)CC1)S(=O)(=O)c1cccc(C(=O)Nc2ccc(OCC3CC3)cc2C(=O)Nc2ccc(CCc3ccc(C(=O)O)cc3)cc2)c1 [Example 30, Disodium 4-[2-(4-{[2-({3-[(trans-4-carboxylatocyclohexyl)(ethyl)sulfamoyl]benzoyl}amino)-5-(cyclopropylmethoxy)benzoyl]amino}phenyl)ethyl]benzoate] | 69% |
| CCN([C@H]1CC[C@H](C(=O)O)CC1)S(=O)(=O)c1cccc(C(=O)Nc2ccc(N3CCCCC3)cc2C(=O)Nc2ccc(CCc3ccc(C(=O)O)cc3)cc2)c1 [Example 12, Dipotassium 4-[2-(4-{[2-({3-[(trans-4-carboxylatocyclohexyl)(ethyl)sulfamoyl]benzoyl}amino)-5-(piperidin-1-yl)benzoyl]amino}phenyl)ethyl]benzoate] | 79% |
| O=C([O-])c1ccc(CCc2ccc(NC(=O)c3cc(N4CCCCC4)ccc3NC(=O)c3cccc(S(=O)(=O)N(C4CC4)[C@H]4CC[C@H](C(=O)[O-])CC4)c3)cc2)cc1.[K+].[K+] [Example 27, Dipotassium 4-[2-(4-{[2-({3-[(trans-4-carboxylatocyclohexyl)(cyclopropyl)sulfamoyl]benzoyl}amino)-5-(piperidin-1-yl)benzoyl]amino}phenyl)ethyl]benzoate] | 57% |
| CCN([C@H]1CC[C@H](C(=O)[O-])CC1)S(=O)(=O)c1cccc(C(=O)Nc2ccc(OCC3CC3)cc2C(=O)Nc2ccc(CCc3ccc(C(=O)[O-])cc3)cc2)c1.[K+].[K+] [Example 15, Dipotassium 4-[2-(4-{[2-({3-[(trans-4-carboxylatocyclohexyl)(ethyl)sulfamoyl]benzoyl}amino)-5-(cyclopropylmethoxy)benzoyl]amino}phenyl)ethyl]benzoate] | 82% |
| CCN(CC)c1ccc(NC(=O)c2cccc(S(=O)(=O)N(CC)[C@H]3CC[C@H](C(=O)O)CC3)c2)c(C(=O)Nc2ccc(CCc3ccc(C(=O)O)cc3)cc2)c1 [Example 14, Dipotassium 4-[2-(4-{[2-({3-[(trans-4-carboxylatocyclohexyl)(ethyl)sulfamoyl]benzoyl}amino)-5-(diethylamino)benzoyl]amino}phenyl)ethyl]benzoate] | 76% |
| CCN([C@H]1CC[C@H](C(=O)O)CC1)S(=O)(=O)c1cccc(C(=O)Nc2ccc(Br)cc2C(=O)Nc2ccc(CCc3ccc(C(=O)O)cc3)cc2)c1 [Example 4, Dipotassium 4-[2-(4-{[5-bromo-2-({3-[(trans-4-carboxylatocyclohexyl)(ethyl)sulfamoyl]benzoyl}amino)benzoyl]amino}phenyl)ethyl]benzoate] | 42% |
| CCN([C@H]1CC[C@H](C(=O)[O-])CC1)S(=O)(=O)c1cccc(C(=O)Nc2ccc(N3CCCCC3)cc2C(=O)Nc2ccc(CCc3ccc(C(=O)[O-])cc3)cc2)c1.[Na+].[Na+] [Example 28, Disodium 4-[2-(4-{[2-({3-[(trans-4-carboxylatocyclohexyl)(ethyl)sulfamoyl]benzoyl}amino)-5-(piperidin-1-yl)benzoyl]amino}phenyl)ethyl]benzoate] | 60% |
| CCN(CC)c1ccc(NC(=O)c2cccc(S(=O)(=O)N(CC)[C@H]3CC[C@H](C(=O)[O-])CC3)c2)c(C(=O)Nc2ccc(CCc3ccc(C(=O)[O-])cc3)cc2)c1.[Na+].[Na+] [Example 29, Disodium 4-[2-(4-{[2-({3-[(trans-4-carboxylatocyclohexyl)(ethyl)sulfamoyl]benzoyl}amino)-5-(diethylamino)benzoyl]amino}phenyl)ethyl]benzoate] | 72% |
